Experimental data published in patent US20260000079A1, “COMPOSITIONS AND METHODS FOR MODULATING IMMUNITY IN PLANTS” (BOYCE THOMPSON INSTITUTE FOR PLANT RESEARCH, INC., priority 2019, published 2026).

Test system: Pseudomonas syringae DC3000
Test: Bacterial growth assay in ascr #18-pretreated Arabidopsis
Assay type: in vivo, Pseudomonas syringae pv. tomato
Details: 1 μM, 24 hours pretreatment; acx1acx5 and wildtype Arabidopsis
Procedure: FIG. 4A provides a schematic of the experimental designs for assessing activation of defense pathways and resistance to nematodes and bacteria. […] Bacterial growth was assayed 3 days post inoculation. Data are averages±s.d. (n=17). […] Arabidopsis seedlings were treated with buffer or the indicated concentrations of ascr #18 for 48 hours before inoculation with approximately 300 freshly hatched M. incognita J2 larvae. The numbers of root galls of infected plants were counted 6 weeks post inoculation. Data are averages±s.d. (n≥15). […] Larvae touching root tips (FIG. 4D) or the whole area of roots (FIG. 4E) were counted at 6 hours post seedling transfer. […] Transcript levels were determined by qRT-PCR and plotted as relative fold-change compared to mock treated plants. […]
Given the rapid conversion of ascr #18 into shorter-chained ascarosides via pβo, the inventors investigated whether metabolism of the pathogen-produced compound ascr #18 produced by plant pathogenic nematodes is required for the activation of plant defense responses and resistance to other non-nematode pathogens. […] To test whether ascaroside metabolism plays a role in ascr #18-mediated enhanced resistance to a bacterial pathogen, the effect of ascr #18 treatment on infection with Pseudomonas syringae DC3000 was evaluated in the acx1acx5 mutant and wildtype Arabidopsis.

## CC1O[C@@H](O[C@@H](C)CCCCCCCCC(=O)O)C(O)C[C@H]1O (stereo in doubt) [ascr #18, (10R)-(3′R,5′R-dihydroxy-6′S-methyl-(2H)-tetrahydropyran-2-yloxy)-undecanoic acid]
  protection against P. syringae infection (bacterial growth 3 days post inoculation): comparable levels of protection
